Measurements reported in PMC6981064 (Biochemical and biophysical research communications, 2019).

What was measured:
[1] = target: T1, glutamate-oxaloacetate transaminase 1 (GOT1) (Homo sapiens, UniProt P17174); experiment: MDH1-coupled enzyme assay, […] h pre-incubation; format: biochemical
[2] = target: T1, glutamate-oxaloacetate transaminase 1 (GOT1); experiment: MDH1-coupled enzyme assay, percent inhibition; format: biochemical

T1 sequence (P17174 2-413): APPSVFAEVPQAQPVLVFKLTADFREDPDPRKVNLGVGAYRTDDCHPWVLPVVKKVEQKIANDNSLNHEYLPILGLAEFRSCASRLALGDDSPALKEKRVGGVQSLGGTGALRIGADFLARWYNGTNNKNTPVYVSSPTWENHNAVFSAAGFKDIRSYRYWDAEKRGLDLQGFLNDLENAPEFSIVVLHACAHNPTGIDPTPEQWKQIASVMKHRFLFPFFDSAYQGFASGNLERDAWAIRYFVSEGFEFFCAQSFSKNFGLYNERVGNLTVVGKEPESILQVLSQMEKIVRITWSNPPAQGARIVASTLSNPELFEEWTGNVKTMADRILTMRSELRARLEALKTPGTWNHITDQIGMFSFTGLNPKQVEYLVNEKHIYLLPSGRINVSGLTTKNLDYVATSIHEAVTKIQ

Row | Structure (SMILES) | IC50 [1] [µM] | MDH1-coupled enzyme assay, percent inhibition [2]
1 | N[C@H]1Cc2ccccc2N(O)C1=O [PF-04859989] | 8 | 
2 | NOCC(=O)O [amino-oxyacetate] |  | The pan-transaminase inhibitor amino-oxyacetate (AOA) was used as a positive control
